Measured values published in US7485601B2, “Herbicide composition” (Sumitomo Chemical Company, Limited, priority 2001, dated 2009).

Legend:
[1] = system: yellow nutsedge (Cyperus esculentus); assay: Herbicide effect by foliar spray on pot-grown yellow nutsedge in greenhouse (Test Example 1); format: in vivo; settings: evaluated 25 days after treatment, level 0-10
Method: (§1) Evaluation of phytotoxicity against a crop was shown by “no” when almost no phytotoxicity was observed, “low” when a low level phytotoxicity was observed, “medium” when a medium level phytotoxicity was observed and “high” when a high level phytotoxicity was observed.
(§2) A plastic pot of 11 cm in diameter and 8 cm in depth was filled with field soil. A tuber of yellow nutsedge (Cyperus esculentus) was planted and grown in a greenhouse for 21 days.
(§3) An emulsion of Compound A-1 was prepared by sufficiently mixing 5 parts of Compound A-1, 6 parts of Sorpol 3005×(surfactant, produced by Toho Chemical) and 89 parts of xylene.
(§4) Each of single use of an emulsion of Compound A-1, single use of an formulation of Chlorimuron-ethyl (commercial name: Classic, produced by Du Pont, containing 25% of Chlorimuron-ethyl), and a mixed composition of an emulsion of Compound A-1 and an formulation of Chlorimuron-ethyl, were diluted with water containing 1% Agri-dex (produced by Helena). Respective dilutions were uniformly sprayed from upper side onto foliages of yellow nutsedge grown as described above with a small sprayer such that the amounts of the active ingredients were the amounts shown in Table 4. […]
(§5) After the treatment, they were raised in a greenhouse for 25 days and the effect against weeds was evaluated. In addition, after 14 days of the treatment, the phytotoxicity to soybean was evaluated.

soybean = assay: Phytotoxicity to soybean sown immediately after treatment (Test Example 1); format: in vivo; settings: evaluated after 14 days
Method: as §1, §2, §3, §4, §5

Question: With `CCOC(=O)c1ccccc1S(=O)(=O)NC(=O)Nc1nc(Cl)cc(OC)n1` [Chlorimuron-ethyl, ethyl 2-(4-chloro-6-methoxypyrimidin-2-ylcarbamoylsulfamoyl)benzoate] as the compound, how does the “Herbicide Effect yellow nutsedge” value ([1]; 5 g/ha active ingredient) read?
Answer: 1

Question: And the “Herbicide Effect yellow nutsedge” value ([1]; 20 g/ha active ingredient)?
Answer: 2

Question: What about the Phytotoxicity soybean (soybean; 5 g/ha active ingredient) of the same compound?
Answer: no

Question: What about the Phytotoxicity soybean (soybean; 20 g/ha active ingredient) of the same compound?
Answer: no
